Earlier results in US20190346442A1, “IMPROVED HLA EPITOPE PREDICTION” (The Broad Institute, Inc., priority 2016, published 2019).

Experiments:
healthy human volunteers = conditions: 8 volunteers, one single s.c. administration, versus 4 subjects receiving placebo; whole blood
[1] = tested on: ovarian carcinoma patients; conditions: poly-ICLC in combination with NY-ESO-1 peptide vaccine, in addition to Montanide; phase 1
[2] = tested on: advanced hormone refractory prostate cancer patients; conditions: personalized vaccination combined with a low dose of estramustine

## Polyinosinic-Polycytidylic Acid-poly-L-lysine Carboxymethylcellulose [poly-ICLC]
Healthy human volunteers
  differential expression of genes versus placebo: up to 212 genes
[1]
  patients showing induction of CD4+ and CD8+ T cell, as well as antibody responses to the peptide: > 90%

## C[C@]12CC[C@@H]3c4ccc(OC(=O)N(CCCl)CCCl)cc4CC[C@H]3[C@@H]1CC[C@@H]2O [estramustine]
[2]
  patients with >50% decrease in serum prostate specific antigen (PSA): 54%
